Measurements: patent US20100324285A1, “ANTIINFLAMMATORY AGENT COMPRISING 2-AMINOPHENOL OR DERIVATIVE THEREOF AS ACTIVE INGREDIENT” (priority 2006, published 2010)

System: RBL-2H3
Assay: Degranulation reaction of basocyte (β-hexosaminidase release)
Assay type: cell-based, rat
Method: Degranulation rate (%) and inhibition rate of degranulation (%) were calculated based on the measurements of β-hexosaminidase activity in the granules released from the cells by degranulation reaction.
Rat cancer cells from basocyte RBL-2H3(catalognumber“JCRB0023”, commercialized by Health Science Research Resources Bank of Japan Health Sciences Foundation), known to be degranulated by cross-linkage of IgE, were used after cultured in a MEM medium (commercialized by Nissui Pharmaceutical Co., Ltd.) supplemented with 10% (v/v) FCS.
The above cells were recovered from a flask by conventional trypsin-EDTA treatment, then suspended in a MEM medium supplemented with 10% (v/v) FCS to give a cell concentration of 5×10^5 cells/ml. The suspension was inoculated to a 24-well microplate in a volume of 400 μl per well, cultured in a 5% (v/v) carbon dioxide incubator for 3 to 5 hours, then admixed with 0.625 μg/ml of anti dinitrophenol (hereinafter abbreviated as “DNP”) mouse IgE (commercialized by Sigma-Aldrich, Inc., diluted by MEM medium supplied with 10% (v/v) FCS) in a volume of 100 μl per well to sensitize the cells by IgE (a final concentration of the anti DNP-IgE was 0.125 μg/ml). After the cells were cultured in the 5% (v/v) carbon dioxide incubator overnight, the supernatant was removed by suction, and then each well was washed twice with Siraganian buffer (119 mM NaCl, 5 mM KCl, 0.4 mM MgCl2, 25 mM piperazine-N,N″-bis(2-ethane sulfonic acid) (PIPES), 40 mM NaOH, pH 7.2) by 500 μl per well. After admixed with Siraganian buffer containing 0.1% bovine serum albumin (BSA), 5.6 mM glucose and 1 mM CaCl2 (hereinafter described as “BSA-containing Siraganian buffer) in a volume of 160 μl per well, the microplate was warmed at 37° C. for 15 minutes. As test samples, 2-aminophenoxazine-3-one (questiomycin A), arbutin having skin-whitening effect and oxatomide used as therapeutic agents for allergic diseases (positive control) were diluted with BSA-containing Siraganian buffer to give the concentrations shown in Table 3, any of the test samples was added by 20 μl per well, then the microplate was warmed at 37° C. for 15 minutes (wells with the test samples). The well with any of the test samples was admixed with DNP-albumin (commercialized by Sigma-Aldrich, Inc.) diluted with BSA-containing Siraganian buffer to give a concentration of 50 μg/ml by 20 μl per well, and warmed at 37° C. for 15 minutes. After the 24-well microplate was cooled on ice for 10 minutes, the supernatant was collected and 100 μl thereof was injected into a 96-well microplate to measure the β-hexosaminidase activity in the supernatant. As negative control, BL-2H3 cells were cultured and treated in the same way as the wells admixed with the test samples except for that FCS-supplemented MEM medium containing no antibody was used, and the β-hexosaminidase activity in the supernatant was measured (the well without IgE sensitization). After the supernatants were removed from some of the wells without IgE sensitization, the wells were washed twice with BSA-containing Siraganian buffer and admixed with BSA-containing Siraganian buffer by 200 μl per well. The cells were broken by twice repeating freezing at −80° C. and thawing, whole medium containing the broken cells was collected, centrifuged at 1,500 rpm for 10 minutes, and then 100 μl of the supernatant was injected into a 96-well microplate to measure the β-hexosaminidase activity of the whole granule extract.
Each well of the 96-well microplate injected with any of the supernatant from the wells with the test samples, the supernatant from the wells without IgE sensitization or the whole granule extract described above was admixed with 50 μl of citrate buffer (pH 4.5) containing 1 mM 4-nitrophenyl-N-acetyl-β-glucosaminide (PNAG) as substrate, kept at 37° C. for 1 hour, and then the reaction was stopped by adding 50 μl of 0.1 M sodium carbonate (pH 10.5). […]

In the case of `Nc1cc2nc3ccccc3oc-2cc1=O` [2-Aminophenoxazine-3-one, 2-aminophenoxazine-3-one], the inhibition at 0.63 µM (Rattus norvegicus, RBL-2H3, 0.63 μM, read-out: Inhibition intensity of degranulation) is reported as -30 to 30%, the inhibition at 5 µM (Rattus norvegicus, RBL-2H3, 5 μM, read-out: Inhibition intensity of degranulation) is reported as 30 to 50% and the inhibition at 10 µM (Rattus norvegicus, RBL-2H3, 10 μM, read-out: Inhibition intensity of degranulation) is reported as no less than 50%. It also gave an inhibition at 23 µM (Rattus norvegicus, RBL-2H3, 23 μM, read-out: Inhibition intensity of degranulation) of no less than 50%, an inhibition at 31.3 µM (Rattus norvegicus, RBL-2H3, 31.3 μM, read-out: Inhibition intensity of degranulation) of no less than 50% and an inhibition at 40 µM (Rattus norvegicus, RBL-2H3, 40 μM, read-out: Inhibition intensity of degranulation) of no less than 50%. The “concentration at which inhibiting activity on degranulation was exerted” value (summary of Table 3) was no less than 5 µM.
